Several values for one entry are separate records, joined by “and”; a condition that tells them apart may be missing. Equal values may be shown once. Inconclusive results and toxic doses are left out. How the source made its calls: active means survival T/C of 150% or more; inactive means T/C below 125% in these data.
Tested on: P388 leukemia ip, CD2F1 mice, survival T/C
Test: NCI In Vivo Anticancer Drug Screen. Data for tumor model P388 Leukemia (intraperitoneal) in CD2F1 (CDF1) mice
Conditions: endpoint: median survival time, higher = longer survival
Summary of the method: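 Mice carrying the transplanted tumor received test compound or vehicle. Survival was recorded in each group, and the value is the treated-group measurement divided by that of the vehicle-treated control group.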

[1] = dose: 3.12 mg/kg/injection, schedule: Q01DX009 (ip), vehicle: saline with Tween-80
[2] = dose: 6.25 mg/kg/injection, schedule: Q01DX009 (ip), vehicle: saline with Tween-80
[3] = dose: 12.5 mg/kg/injection, schedule: Q01DX009 (ip), vehicle: saline with Tween-80
[4] = dose: 25.0 mg/kg/injection, schedule: Q01DX009 (ip), vehicle: saline with Tween-80
[5] = dose: 50.0 mg/kg/injection, schedule: Q01DX009 (ip), vehicle: saline with Tween-80
[6] = dose: 100.0 mg/kg/injection, schedule: Q01DX009 (ip), vehicle: saline with Tween-80
[7] = dose: 200.0 mg/kg/injection, schedule: Q01DX009 (ip), vehicle: saline with Tween-80
[8] = dose: 50.0 mg/kg/injection, schedule: Q01DX009 (ip), vehicle: saline
[9] = dose: 100.0 mg/kg/injection, schedule: Q01DX009 (ip), vehicle: saline
[10] = dose: 200.0 mg/kg/injection, schedule: Q01DX009 (ip), vehicle: saline

Measured: T/C

O=C1C(=O)c2ccccc2C(O)=C1CCCc1ccc(C2CCCCC2)cc1
inactive: [1] 112 % of control | [2] 101 % of control | [3] 94 % of control | [4] 101 % of control | [5] 94 % of control | [6] 93 % of control | [7] 104 % of control

CC(C)NCCCC(=O)O
inactive: dose: 25.0 mg/kg/injection, schedule: Q01DX009 (ip), vehicle: water 101 % of control | dose: 50.0 mg/kg/injection, schedule: Q01DX009 (ip), vehicle: water 99 % of control | dose: 100.0 mg/kg/injection, schedule: Q01DX009 (ip), vehicle: water 109 % of control | dose: 200.0 mg/kg/injection, schedule: Q01DX009 (ip), vehicle: water 96 % of control | dose: 400.0 mg/kg/injection, schedule: Q01DX009 (ip), vehicle: water 90 % of control

COC1C(OC(=O)c2ccc(C)[nH]2)C(O)C(Oc2ccc3c(O)c(NC(=O)c4c[nH]c(C(=O)Nc5c(O)c6ccc(OC7OC(C)(C)C(OC)C(OC(=O)c8ccc(C)[nH]8)C7O)c(C)c6oc5=O)c4C)c(=O)oc3c2C)OC1(C)C (configuration not stated)
inactive: [2] 110 % of control and 97 % of control | [3] 100 % of control and 122 % of control | [4] 96 % of control | [5] 103 % of control | [8] 118 % of control | [6] 90 % of control | [9] 113 % of control | dose: 100.0 mg/kg/injection, schedule: Q04DX003 (ip), vehicle: saline with Tween-80 109 % of control | [7] 109 % of control | [10] 102 % of control | dose: 200.0 mg/kg/injection, schedule: Q04DX003 (ip), vehicle: saline with Tween-80 100 % of control | dose: 400.0 mg/kg/injection, schedule: Q01DX009 (ip), vehicle: saline with Tween-80 100 % of control | dose: 400.0 mg/kg/injection, schedule: Q01DX009 (ip), vehicle: saline 117 % of control | dose: 400.0 mg/kg/injection, schedule: Q04DX003 (ip), vehicle: saline with Tween-80 109 % of control

C=CCC1C=CC=CN1C(=O)OCC (configuration not stated)
inactive: dose: 60.0 mg/kg/injection, schedule: Q01DX005 (ip), vehicle: saline 113 % of control | dose: 120.0 mg/kg/injection, schedule: Q01DX005 (ip), vehicle: saline 113 % of control | dose: 240.0 mg/kg/injection, schedule: Q01DX005 (ip), vehicle: saline 98 % of control

NC(N)=N/N=C1C=C/C(=N/N=C(N)N)C/1
inactive: dose: 25.0 mg/kg/injection, schedule: Q01DX001 (ip), vehicle: saline 104 % of control | dose: 50.0 mg/kg/injection, schedule: Q01DX001 (ip), vehicle: saline 100 % of control | dose: 100.0 mg/kg/injection, schedule: Q01DX001 (ip), vehicle: saline 107 % of control | dose: 200.0 mg/kg/injection, schedule: Q01DX001 (ip), vehicle: saline 94 % of control

CC12CC(c3ccccc3N1)C1CC2(C)Nc2ccccc21
inactive: dose: 50.0 mg/kg/injection, schedule: Q01DX005 (ip), vehicle: Klucel (hydroxypropylcellulose) (HPC) 95 % of control | dose: 100.0 mg/kg/injection, schedule: Q01DX005 (ip), vehicle: Klucel (hydroxypropylcellulose) (HPC) 100 % of control | dose: 200.0 mg/kg/injection, schedule: Q01DX005 (ip), vehicle: Klucel (hydroxypropylcellulose) (HPC) 102 % of control

CC(SCCCCCCCCCCCCSC(C)C(=O)O)C(=O)O (configuration not stated)
inactive: dose: 50.0 mg/kg/injection, schedule: Q01DX005 (ip), vehicle: saline with Tween-80 106 % of control | dose: 100.0 mg/kg/injection, schedule: Q01DX005 (ip), vehicle: saline with Tween-80 97 % of control | dose: 200.0 mg/kg/injection, schedule: Q01DX005 (ip), vehicle: saline with Tween-80 100 % of control

O=C1c2ccc([N+](=O)[O-])cc2NC(O)c2cccn21 (configuration not stated)
inactive: dose: 0.1 mg/kg/injection, schedule: Q01DX005 (ip), vehicle: water 96 % of control | dose: 0.2 mg/kg/injection, schedule: Q01DX005 (ip), vehicle: water 96 % of control | dose: 0.4 mg/kg/injection, schedule: Q01DX005 (ip), vehicle: water 91 % of control | dose: 0.8 mg/kg/injection, schedule: Q01DX005 (ip), vehicle: water 96 % of control | dose: 1.6 mg/kg/injection, schedule: Q01DX005 (ip), vehicle: water 96 % of control | dose: 5.0 mg/kg/injection, schedule: Q01DX005 (ip), vehicle: distilled water + Tween-80 99 % of control | dose: 10.0 mg/kg/injection, schedule: Q01DX005 (ip), vehicle: distilled water + Tween-80 95 % of control | dose: 20.0 mg/kg/injection, schedule: Q01DX005 (ip), vehicle: distilled water + Tween-80 95 % of control | dose: 40.0 mg/kg/injection, schedule: Q01DX005 (ip), vehicle: distilled water + Tween-80 91 % of control | dose: 80.0 mg/kg/injection, schedule: Q01DX005 (ip), vehicle: distilled water + Tween-80 91 % of control

O=S(=O)(CCl)OCCF
inactive: dose: 1.56 mg/kg/injection, schedule: Q01DX009 (ip), vehicle: saline with Tween-80 110 % of control | [1] 102 % of control | [2] 105 % of control and 117 % of control

O=S1(=O)CCCCC1
inactive: dose: 50.0 mg/kg/injection, schedule: Q04DX003 (ip), vehicle: saline 100 % of control | dose: 100.0 mg/kg/injection, schedule: Q04DX003 (ip), vehicle: saline 100 % of control | dose: 200.0 mg/kg/injection, schedule: Q04DX003 (ip), vehicle: saline 110 % of control

[C-]#[O+].[C-]#[O+].[C-]#[O+].[C-]#[O+].[Mo].c1cnc2c(c1)ccc1cccnc12
inactive: dose: 6.25 mg/kg/injection, schedule: Q01DX009 (ip), vehicle: Klucel (hydroxypropylcellulose) (HPC) 100 % of control | dose: 12.5 mg/kg/injection, schedule: Q01DX009 (ip), vehicle: Klucel (hydroxypropylcellulose) (HPC) 95 % of control | dose: 25.0 mg/kg/injection, schedule: Q01DX009 (ip), vehicle: Klucel (hydroxypropylcellulose) (HPC) 93 % of control | dose: 50.0 mg/kg/injection, schedule: Q01DX009 (ip), vehicle: Klucel (hydroxypropylcellulose) (HPC) 95 % of control

O=S(=O)(Cc1cccc(C(F)(F)F)c1)c1nc2cccnc2s1
inactive: [5] 103 % of control | [6] 103 % of control | [7] 101 % of control

CSc1nc(SC)c2c(C)c(Br)[nH]c2n1
inactive: dose: 100.0 mg/kg/injection, schedule: Q01DX001 (ip), vehicle: saline with Tween-80 94 % of control | dose: 200.0 mg/kg/injection, schedule: Q01DX001 (ip), vehicle: saline with Tween-80 94 % of control | dose: 400.0 mg/kg/injection, schedule: Q01DX001 (ip), vehicle: saline with Tween-80 89 % of control

O=C(Nc1c(Cl)cccc1Cl)OCc1ccco1
inactive: dose: 60.0 mg/kg/injection, schedule: Q01DX005 (ip), vehicle: Klucel (hydroxypropylcellulose) (HPC) 105 % of control | dose: 120.0 mg/kg/injection, schedule: Q01DX005 (ip), vehicle: Klucel (hydroxypropylcellulose) (HPC) 102 % of control | dose: 240.0 mg/kg/injection, schedule: Q01DX005 (ip), vehicle: Klucel (hydroxypropylcellulose) (HPC) 100 % of control

CN(C)C(=S)SC1OC(CO)C(OC2OC(CO)C(O)C(O)C2O)C(O)C1O (configuration not stated)
inactive: [5] 93 % of control | [6] 90 % of control | [7] 88 % of control

CCCCOC(=O)NC(=O)c1cc2cc(Br)cc(Br)c2oc1=O
inactive: dose: 60.0 mg/kg/injection, schedule: Q01DX005 (ip), vehicle: saline with Tween-80 94 % of control | dose: 120.0 mg/kg/injection, schedule: Q01DX005 (ip), vehicle: saline with Tween-80 101 % of control | dose: 240.0 mg/kg/injection, schedule: Q01DX005 (ip), vehicle: saline with Tween-80 92 % of control

CC1(C)CC(=O)C2=C(C1)Oc1c(Cl)cc(Cl)cc1C2
inactive: [8] 108 % of control | [9] 98 % of control | [10] 92 % of control
